According to publication PMC10820816, “Drug Synergism of Anticancer Action in Combination with Favipiravir and Paclitaxel on Neuroblastoma Cells” (Medicina, 2023):
≈ marks a conversion by molar mass, not a printed value.

How the values were obtained:
[1] = Flow cytometry analysis (FITC Annexin V / PI); assay type: cell-based, human; details: human, SH-SY5Y neuroblastoma cells, SHSY-5Y, PTX 10 µg/mL
Experimental: (§1) The human dermal fibroblast cell (HDFa, ATCC® PCS-201-012™) culture was grown in the DMEM medium supplemented with 1% penicillin/streptomycin, 10% FBS and 5% CO2 at a 37 °C temperature until the cultures reached 80% confluency. The human neuroblastoma cell (SH-SY5Y, ATCC® CRL-2266™) line was cultured in DMEM/F12 culture media containing 1% penicillin/streptomycin and 10% fetal bovine serum at 37 °C and 5% CO2. Neuroblastoma cell cultures were incubated to grow up to 80% cell density.
(§2) Flow cytometry analysis was performed by using the FITC Annexin V/Dead Cell Apoptosis Kit with FITC Annexin V and PI according to the producer’s recommendations. Further, 5 × 10^4 cells were collected by trypsinization and centrifugation. The cells were resuspended in 500 μL of 1× binding buffer and 5 μL of propidium iodide, and the Annexin V-FITC (50 μg/mL) dyes were added to the cultures and incubated in the dark for 5 min. Finally, the cultures were analyzed via the use of flow cytometry (The CyFlow® Cube 6, Norderstedt, Germany).

[2] = MTT cell viability assay on SH-SY5Y neuroblastoma cells; assay type: cell-based, human; details: human, SH-SY5Y neuroblastoma cells, SHSY-5Y, PTX 10 µg/mL alone
Experimental: as §1
(§3) Cell viability analyses were performed on HDFa and SH-SY5Y by using the 3-(4,5-dimethylthiazol-2-yl)-2,5-diphenyltetrazolium bromide (MTT) technique. Briefly, the compounds were applied to cell cultures at defined concentration intervals (1.65 µg/mL to 100 µg/mL) for 24 h. At the end of the incubation period, 10 µL of the MTT solution ([…]) was added to each culture well, and the samples were incubated at 37 °C for 3 h. Then, the culture mediums were discarded, and 100 µL of DMSO was added to the samples to dissolve formazan crystal to obtain a purple/blue color. A microplate reader was used to measure the color intensities at a 570 nm wavelength.

[3] = test system: SHSY-5Y neuroblastoma cells; assay: as above; assay type: cell-based, human; details: 24 h, p < 0.05
Experimental: as §1, §3

[4] = test system: HDFa healthy cell cultures; assay: Hoechst 33258 fluorescent staining and nuclear abnormality analysis; assay type: cell-based, human; design: MN (micronuclei) / Ntc (notched nuclei): unit not given here; details: for nuclear anomaly change compared to negative control: Hoechst 33258 staining; for Abnormality Numbers/1000 Cells / L (lobed nuclei) / MN (micronuclei) / Ntc (notched nuclei): 24 h
Experimental: as §1
The Hoechst 33258 nuclear staining method was used to monitor abnormalities in the nuclear structures of a healthy HDFa cell culture. Tested drugs were applied to the HDFa cell cultures at various concentrations, and the cell cultures were incubated at 37 °C for 24 h. Then, HDFa cells were fixed by using 4% paraformaldehyde at 4 °C for 30 min. After the incubation period, the cell cultures were washed with PBS two times. A total of 1 µM Hoechst 33258 fluorescent dye was added to the samples and incubated at room temperature for 5 min. Nuclear morphologies were monitored and photographed under a fluorescent microscope (Leica® DM IL LED, Wetzlar, Germany).

[5] = test system: human fibroblast (HDFa) cells; assay: MTT cell viability assay on human fibroblast (HDFa) cells; assay type: cell-based; details: 24 h, p < 0.05
Experimental: as §1, §3

[6] = test system: SHSY-5Y neuroblastoma cells; assay: Flow cytometry analysis (FITC Annexin V / PI); assay type: cell-based, human; details: FPV alone 39.06, 19.53, 9.76 µg/mL
Experimental: as §1, §2

[7] = test system: CYP2C8; design: method as in PMID 34339547; details: cited from earlier work

With CC(=O)O[C@H]1C(=O)[C@@]2(C)[C@H]([C@H](OC(=O)c3ccccc3)[C@]3(O)C[C@H](OC(=O)[C@H](O)[C@@H](NC(=O)c4ccccc4)c4ccccc4)C(C)=C1C3(C)C)[C@]1(OC(C)=O)CO[C@@H]1C[C@@H]2O [PTX, Paclitaxel] the viability at 10 µg/mL [1] was ~37%, the viability at 24 h, 10 µg/mL [2] was 37% and the “concentrations causing a significant decrease in cell viability (cytotoxic effect)” value [3] was ≥ 0.3125 µg/mL. The “nuclear anomaly change compared to negative control” value [4] was “no significant numerical anomaly change”, the “Abnormality Numbers/1000 Cells” value ([4]; PTX 10 µg/mL) was 0.019 ± 0.013 a and the “L (lobed nuclei)” value ([4]; PTX 10 µg/mL) was 5. For the same compound, the “MN (micronuclei)” value ([4]; PTX 10 µg/mL) was 8, the “Ntc (notched nuclei)” value ([4]; PTX 10 µg/mL) was 6 and the “concentrations causing a significant cytotoxic / viability-reducing effect” value [5] was 10 µg/mL.
For NC(=O)c1nc(F)c[nH]c1=O [FPV, Favipiravir], the “change in cell viability” value [6] is given as “did not cause a significant change in cell viability”, the “IC50, concentration-dependent inhibitory effect on CYP2C8” value [7] is given as 74.9 µg/mL (≈ 477 µM) and the “Abnormality Numbers/1000 Cells” value ([4]; FPV 9.7 µg/mL) is given as 0.020 ± 0.008 a. The “L (lobed nuclei)” value ([4]; FPV 9.7 µg/mL) was 7, the “MN (micronuclei)” value ([4]; FPV 9.7 µg/mL) was 8 and the “Ntc (notched nuclei)” value ([4]; FPV 9.7 µg/mL) was 5. The “Abnormality Numbers/1000 Cells” value ([4]; FPV 19.5 µg/mL) was 0.019 ± 0.016 a, the “L (lobed nuclei)” value ([4]; FPV 19.5 µg/mL) was 6 and the “MN (micronuclei)” value ([4]; FPV 19.5 µg/mL) was 6. The “Ntc (notched nuclei)” value ([4]; FPV 19.5 µg/mL) was 7, the “Abnormality Numbers/1000 Cells” value ([4]; FPV 39 µg/mL) was 0.019 ± 0.007 a and the “L (lobed nuclei)” value ([4]; FPV 39 µg/mL) was 7. The “MN (micronuclei)” value ([4]; FPV 39 µg/mL) was 7, the “Ntc (notched nuclei)” value ([4]; FPV 39 µg/mL) was 5 and the “nuclear anomaly change compared to negative control” value [4] was “no significant numerical anomaly change”.
